Assays:
[1] = system: M2-type tumor-associated macrophage (CD45+F4/80+CD206+); experiment: Flow cytometry of tumor tissue, M2-type TAM; assay type: in vivo, mouse
Protocol: More specifically, the tumor cells were thinly crushed and separated from each other in DMEM to which DNasel (1 U/mL) and collagenase D (1 mg/mL) were added. The tissue was gently agitated for 1 hour at 37° C., and separated using a […] nylon mesh filter. Red blood cells were dissolved in Phrmlyse buffer (BE bioscience). Individual cells passed through a 40-μm nylon mesh filter and then were stained with following antibodies: CD4+ T cell (CD45+CD4+CD8−), CD8+ T cell (CD45+CD4−CD8+), Foxp3+ regulatory T cell (CD4+CD25+Foxp3+), dendritic cell (CD45+CD11b+CD11c+), and M1 (CD45+F4/80+CD86+) or M2 macrophage (CD45+F4/80+CD206+): anti-CD45-FITC, anti-CD4-phycoerythrin (PE), anti-CD8-allophycocyanin (APC), anti-CD4-FITC, anti-CD25-PE, anti-Foxp3-Alexa Fluor647, anti-CD11b-APC, anti-CD11c-APCcy7, anti-Grl-PEcy7, anti-CD86-PEcy7, and anti-CD206-APC antibodies. Annexin-V was previously treated to measure the cell percentage of macrophages.

[2] = system: RAW264.7 cells differentiated into M2 cells; experiment: XF24 Extracellular Flux metabolic measurement (OCR, ECAR); assay type: cell-based, mouse; conditions: 1 μM peptide, compared to PBS-treated group
Protocol: […] assay was performed to measure the effect of MEL-dKLA on the metabolic action of mitochondria.
More specifically, the metabolic action was measured using an XF24 Extracellular Flux analyzer (Agilent, CA, USA). RAW264.7 cells were differentiated into M2 cells which were inoculated into XF-24 plates (3×10^4 cells/well). The next day, in order to minimize the potential stress due to changes in the situation, 1 μM of each peptide was applied thereto. Then, the cells were incubated in a 37° C. incubator under 5% CO2 condition. […] Then, the oxygen consumption rate (OCR) and the extracellular acidification rate (ECAR) were measured in real time.
Further, OCR was measured at a time point corresponding to 12 times. The basal state was measured at a time point corresponding to 3 times. Then, ATP-connected respiration after oligomycin addition was measured at a time point corresponding to further 3 times. Then, the maximum respiration after FCCP addition was measured at a time point corresponding to further 3 times. Then, a point at which non-mitochondrial respiration occurred after addition of Rot/AA was measured at a time point corresponding to remaining 3 times. Thus, the mitochondria respiration ability was measured. ECAR indicating the glycolysis rate was measured at the same time points.

[3] = system: mitochondria of M2-type macrophage; experiment: Confocal localisation of TMR-conjugated peptides in mitochondria; assay type: cell-based, mouse; conditions: 1 μM TMR-conjugated peptide, 2 hours; for presence in mitochondria by image measurement: MitoTracker green
Protocol: In order to identify the invasion and location of MEL-dKLA into the mitochondria of M2-type macrophage, those were identified using fluorescence microscopy via staining. Further, PASCAL 5 LSM image measurement was performed for quantitative analysis.
More specifically, RAW264.7 macrophage was differentiated into M2 which in turn was incubated together with 1 μM TMR-conjugated dKLA, MEL or MEL-dKLA for 2 hours. The peptides that were not conjugated thereto were washed off, and then the cells were stained with 250 nM MitoTracker green (Invitrogen) for 30 minutes. After the staining, the cells were stained for 10 minutes in PBS to which 4 μg/mL 4′6-diamidino-2-phenylidole (DAPI; Sigma-Aldrich, MO, USA) was added. The stained cells were measured with a laser scanning confocal microscope (Carl Zeiss, Germany). The location of MEL-dKLA in the mitochondria was measured with an LSMS image meter (Carl Zeiss).

[4] = system: 4T1-luciferase breast cancer cells; experiment: 4T1-luciferase breast cancer in mammary gland of NOD-SCID mice; assay type: in vivo, mouse; conditions: 175 nmol/kg once every 3 days; for luminescence level at the metastasis site / metastasis area (lymph nodes of the armpit and lungs): 4 weeks; for growth of breast cancer cells in mammary gland: NOD-SCID mice
Protocol: More specifically, to identify the effect of MEL-dKLA on tumor growth and metastasis when breast cancer cells were […] into the breast, 4T1-luciferase breast cancer cells (1×10^5) were injected into NOD-SCID mice as immunodeficient mice. From the time point when the tumor mass began to grow in the mammary gland No. 4 on 5 days after the injection, 175 nmol/kg of each of PBS, dKLA, MEL and MEL-dKLA was injected into each group once every 3 days. To measure the growth of the tumor, the size of the tumor was measured once every 3 days using a caliper device, and all tumor tissues were collected 4 weeks after the injection. On 4 weeks after the tumor transplantation, in order to identify metastasis of the tumor to the lymph nodes and lungs, D-luciferin as a substrate of luciferase enzyme was diluted to a concentration of 40 mg/ml and then, 100 μl thereof was administered to mice in an intraperitoneal administration mode. After reacting for about 15 minutes, luminescence was measured using NightOwl (Berthold Technologies) as an in vivo imaging device. Then, we analyzed the luminescence with pictures of mice to identify the level of metastasis to the whole body and lungs. The animal experiment was approved by the Animal Management Committee of Kyunghee University [KHUASP(SE)-18-133], and the animals were managed via autonomous feeding of water and food under a 12-hour light/dark cycle environment without pathogens.

| Compound | M2-type TAM cells compared to the PBS-treated group [1] | proportion of M2-type tumor-associated F4/80+ CD206+ TAM in CD45+ leukocytes [1] | basal respiration (baseline OCR) [2] | correlation with mitochondria [3] | presence in mitochondria by image measurement [3] | luminescence level at the metastasis site [4] | metastasis area (lymph nodes of the armpit and lungs) [4] | growth of breast cancer cells in mammary gland [4] |
| --- | --- | --- | --- | --- | --- | --- | --- | --- |
| CC[C@H](C)[C@H](NC(=O)CN)C(=O)NCC(=O)N[C@@H](C)C(=O)N[C@H](C(=O)N[C@@H](CC(C)C)C(=O)N[C@@H](CCCCN)C(=O)N[C@H](C(=O)N[C@@H](CC(C)C)C(=O)N[C@H](C(=O)N[C@H](C(=O)NCC(=O)N[C@@H](CC(C)C)C(=O)N1CCC[C@H]1C(=O)N[C@@H](C)C(=O)N[C@@H](CC(C)C)C(=O)N[C@H](C(=O)N[C@@H](CO)C(=O)N[C@@H](Cc1c[nH]c2ccccc12)C(=O)N[C@H](C(=O)N[C@@H](CCCCN)C(=O)N[C@@H](CCCNC(=N)N)C(=O)N[C@@H](CCCCN)C(=O)N[C@@H](CCCNC(=N)N)C(=O)N[C@@H](CCC(N)=O)C(=O)N[C@@H](CCC(N)=O)C(N)=O)[C@@H](C)CC)[C@@H](C)CC)[C@@H](C)O)[C@@H](C)O)C(C)C)C(C)C [MEL] | decreased by half | about 10% | no change in baseline OCR | did not have any association with mitochondria | could not be identified therein | exhibited a tendency to decrease but did not exhibit significance | no significant difference from the PBS-treated group | did not occur significantly |
| d[KLAKLAKKLAKLAK] (D-amino acids) [dKLA, pro-apoptotic peptide KLA, used as control] | – | about 20% | no change in baseline OCR | did not have any association with mitochondria | a small amount of dKLA was coupled to the cells | exhibited a tendency to decrease but did not exhibit significance | no significant difference from the PBS-treated group | did not occur significantly |
